{"source": "ChEMBL document CHEMBL6083286", "about": "“Discovery of ERD-12310A as an Exceptionally Potent and Orally Efficacious PROTAC Degrader of Estrogen Receptor α (ERα)” (J Med Chem, 2024)", "key": {"[1]": {"test": "Toxicity in SCID mouse implanted with human MCF7 cells ESR1 Y537S mutant assessed as change in body weight at 3 to 30 mg/kg, po administered 5 days a week for 7 weeks", "assay_type": "organism-based", "conditions": "in vivo, 1176 h, dose 3-30 mg/kg"}, "[2]": {"biological_target": "T1, Protein cereblon/Estrogen receptor (Homo sapiens, UniProt P03372+Q96SW2)", "T1 sequence (P03372 whole entry, looked up)": "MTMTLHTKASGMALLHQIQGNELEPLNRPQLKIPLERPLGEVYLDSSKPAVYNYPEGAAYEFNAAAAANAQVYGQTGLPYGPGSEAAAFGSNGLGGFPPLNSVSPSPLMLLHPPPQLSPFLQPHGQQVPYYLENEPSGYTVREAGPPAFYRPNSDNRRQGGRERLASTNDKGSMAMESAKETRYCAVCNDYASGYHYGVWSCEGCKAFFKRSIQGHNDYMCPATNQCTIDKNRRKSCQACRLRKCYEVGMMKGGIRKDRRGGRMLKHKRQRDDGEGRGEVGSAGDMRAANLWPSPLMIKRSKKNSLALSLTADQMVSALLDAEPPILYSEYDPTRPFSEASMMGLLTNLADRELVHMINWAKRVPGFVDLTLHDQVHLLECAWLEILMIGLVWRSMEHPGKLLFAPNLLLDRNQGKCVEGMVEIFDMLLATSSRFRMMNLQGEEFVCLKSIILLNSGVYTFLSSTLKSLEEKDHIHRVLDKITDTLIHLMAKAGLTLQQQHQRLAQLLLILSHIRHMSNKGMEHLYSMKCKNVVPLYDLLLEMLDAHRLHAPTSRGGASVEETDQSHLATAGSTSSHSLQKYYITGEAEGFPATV", "T1 sequence (Q96SW2 whole entry, looked up)": "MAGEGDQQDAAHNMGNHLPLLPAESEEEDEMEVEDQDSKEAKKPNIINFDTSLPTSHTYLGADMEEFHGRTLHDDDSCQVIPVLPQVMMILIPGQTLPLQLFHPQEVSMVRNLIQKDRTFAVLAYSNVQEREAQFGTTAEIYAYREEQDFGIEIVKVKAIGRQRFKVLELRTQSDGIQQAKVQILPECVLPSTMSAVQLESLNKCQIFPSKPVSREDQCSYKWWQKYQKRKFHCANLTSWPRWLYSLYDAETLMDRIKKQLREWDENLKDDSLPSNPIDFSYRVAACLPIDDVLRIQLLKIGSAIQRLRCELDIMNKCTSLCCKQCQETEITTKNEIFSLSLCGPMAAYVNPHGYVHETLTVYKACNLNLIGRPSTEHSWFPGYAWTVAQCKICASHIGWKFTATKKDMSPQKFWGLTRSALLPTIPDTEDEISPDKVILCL", "test": "PROTAC activity at CRBN/ERalpha in human T47D cells assessed as reduction in ERalpha protein level at 3 nM measured at 4 hrs by Western blot analysis", "assay_type": "cell-based"}, "[3]": {"test": "Volume of distribution at steady state in dog at 3 mg/kg, po or 1 mg/kg, iv measured upto 24 hrs by LC-MS/MS analysis", "assay_type": "ADME, organism-based, Canis lupus familiaris", "conditions": "in vivo"}, "[4]": {"test": "Stability in rat plasma assessed as half life", "assay_type": "ADME, cell-free"}, "[5]": {"test": "Cmax in mouse at 3 mg/kg, po or 1 mg/kg, iv measured upto 24 hrs by LC-MS/MS analysis", "assay_type": "ADME, organism-based", "conditions": "in vivo"}, "[6]": {"test": "Drug concentration in SCID mouse tumor at 10 mg/kg, po administered once daily measured at 24 hrs by LC-MS/MS analysis", "assay_type": "ADME, organism-based, Neoplasm", "conditions": "read-out: Ct"}, "[7]": {"biological_target": "T2, Voltage-gated inwardly rectifying potassium channel KCNH2 (Homo sapiens, UniProt Q12809)", "T2 sequence (Q12809 whole entry)": "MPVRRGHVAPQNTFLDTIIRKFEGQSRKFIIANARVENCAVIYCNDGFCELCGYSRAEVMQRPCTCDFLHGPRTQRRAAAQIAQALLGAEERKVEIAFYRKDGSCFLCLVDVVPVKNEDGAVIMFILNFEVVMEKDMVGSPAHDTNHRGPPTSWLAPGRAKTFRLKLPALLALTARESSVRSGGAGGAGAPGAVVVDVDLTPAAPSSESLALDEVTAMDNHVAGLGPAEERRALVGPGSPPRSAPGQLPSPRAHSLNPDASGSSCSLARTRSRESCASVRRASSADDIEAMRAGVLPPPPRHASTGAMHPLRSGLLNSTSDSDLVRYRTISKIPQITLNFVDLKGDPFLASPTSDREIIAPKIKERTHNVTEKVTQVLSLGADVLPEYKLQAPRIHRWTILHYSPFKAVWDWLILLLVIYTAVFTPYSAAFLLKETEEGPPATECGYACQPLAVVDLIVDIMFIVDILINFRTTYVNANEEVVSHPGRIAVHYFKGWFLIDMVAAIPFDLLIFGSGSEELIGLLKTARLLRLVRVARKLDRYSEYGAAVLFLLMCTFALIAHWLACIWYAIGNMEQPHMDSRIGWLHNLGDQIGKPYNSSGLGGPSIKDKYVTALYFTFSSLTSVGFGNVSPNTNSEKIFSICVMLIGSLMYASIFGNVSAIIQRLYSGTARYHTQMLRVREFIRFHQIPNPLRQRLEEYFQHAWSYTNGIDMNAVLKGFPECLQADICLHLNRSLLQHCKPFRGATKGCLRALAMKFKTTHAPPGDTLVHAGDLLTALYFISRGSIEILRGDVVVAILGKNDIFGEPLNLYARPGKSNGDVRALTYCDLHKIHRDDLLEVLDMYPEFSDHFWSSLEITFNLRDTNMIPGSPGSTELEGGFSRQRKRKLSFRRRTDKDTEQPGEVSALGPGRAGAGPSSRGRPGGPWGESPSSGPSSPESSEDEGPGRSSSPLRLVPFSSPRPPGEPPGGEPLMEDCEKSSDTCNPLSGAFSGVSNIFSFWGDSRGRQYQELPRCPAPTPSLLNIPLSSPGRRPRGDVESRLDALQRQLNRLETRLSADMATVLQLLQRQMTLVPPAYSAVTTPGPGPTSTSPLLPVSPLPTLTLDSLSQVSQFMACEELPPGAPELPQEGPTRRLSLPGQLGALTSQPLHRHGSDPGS", "test": "Inhibition of hERG in HEK293 cells at 10 uM by whole-cell patch clamp assay relative to control", "assay_type": "toxicity, cell-based", "conditions": "hek293, 10 µM"}, "[8]": {"biological_target": "T1, Protein cereblon/Estrogen receptor", "test": "In-vivo PROTAC activity at CRBN/ERalpha in SCID mouse xenografted with human MCF7 cells assessed as reduction in ERalpha level in tumor at 30 mg/kg, po administered daily for 3 days and measured after 24 hrs by Western blot analysis", "assay_type": "functional, organism-based", "design": "scale not given: the % may be the effect or the level left", "conditions": "time 96.0 hrs"}, "[9]": {"test": "Oral bioavailability in mouse at 3 mg/kg measured upto 24 hrs by LC-MS/MS analysis", "assay_type": "ADME, organism-based", "conditions": "in vivo"}, "[10]": {"biological_target": "T1, Protein cereblon/Estrogen receptor", "test": "PROTAC activity at CRBN/ERalpha in human MCF7 cells assessed as reduction in ERalpha protein level at 1 nM measured at 4 hrs by Western blot analysis", "assay_type": "cell-based"}, "[11]": {"test": "AUC (0 to infinity) in dog at 3 mg/kg, po or 1 mg/kg, iv measured upto 24 hrs by LC-MS/MS analysis", "assay_type": "ADME, organism-based, Canis lupus familiaris", "conditions": "in vivo"}, "[12]": {"test": "Metabolic stability rat liver microsome assessed as half life", "assay_type": "ADME", "conditions": "microsomes"}, "[13]": {"biological_target": "T1, Protein cereblon/Estrogen receptor", "test": "PROTAC activity at CRBN/ERalpha in human MCF7 cells assessed as reduction in ERalpha protein level at 5 nM measured for 4 hrs in presence of lasofoxifene by Western blot analysis", "assay_type": "cell-based"}, "[14]": {"biological_target": "T3, Cytochrome P450 2B6 (Homo sapiens, UniProt P20813)", "T3 sequence (P20813 whole entry)": "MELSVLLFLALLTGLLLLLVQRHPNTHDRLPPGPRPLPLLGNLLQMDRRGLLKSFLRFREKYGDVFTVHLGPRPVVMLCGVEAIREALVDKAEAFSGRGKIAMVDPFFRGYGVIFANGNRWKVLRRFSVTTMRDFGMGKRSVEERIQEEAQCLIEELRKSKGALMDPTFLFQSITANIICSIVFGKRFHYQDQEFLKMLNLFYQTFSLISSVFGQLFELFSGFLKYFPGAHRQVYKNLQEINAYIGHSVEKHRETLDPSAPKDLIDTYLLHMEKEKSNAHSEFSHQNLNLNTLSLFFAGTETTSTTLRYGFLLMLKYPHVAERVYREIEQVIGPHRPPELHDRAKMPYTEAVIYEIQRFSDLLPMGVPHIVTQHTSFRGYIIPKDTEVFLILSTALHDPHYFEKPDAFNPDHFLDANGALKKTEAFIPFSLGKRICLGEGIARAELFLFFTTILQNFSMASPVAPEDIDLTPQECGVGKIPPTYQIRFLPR", "test": "Inhibition of CYP2B6 in human liver microsomes preincubated for 5 mins followed by NADPH addition and measured after 10 mins by LC-MS/MS analysis", "assay_type": "ADME, Microsome"}, "[15]": {"test": "Drug concentration in SCID mouse plasma at 30 mg/kg, po administered once daily for 3 days measured after 24 hrs by LC-MS/MS analysis", "assay_type": "ADME, organism-based"}, "[16]": {"biological_target": "T2, Voltage-gated inwardly rectifying potassium channel KCNH2", "test": "Inhibition of hERG in HEK293 cells by whole-cell patch clamp assay", "assay_type": "toxicity, cell-based"}}, "note": "Activity calls are given as the source filed them. The calls are words filed in the database; no cut-off is given here."}
{"smiles": "O=C1CC[C@H](N2Cc3c(ccc4c3OCC43CCN(C[C@@H]4CCC5(CCN(c6ccc([C@@H]7c8ccc(O)cc8CC[C@@H]7c7ccccc7)cc6)CC5)OC4)CC3)C2=O)C(=O)N1", "values": [{"measurement": "Activity", "setting": "[1]", "value": "Non-toxic"}, {"measurement": "Activity", "setting": "[2]", "value": "Active"}, {"measurement": "Vdss", "setting": "[3]", "value": 3.2, "unit": "L/kg"}, {"measurement": "t1/2", "setting": "[4]", "value": "> 4", "unit": "h"}, {"measurement": "Cmax", "setting": "[5]", "value": 58.6, "unit": "ng/mL"}, {"measurement": "concentration at 24 h", "setting": "[6]", "value": 94, "unit": "ng/mL"}, {"measurement": "inhibition (INH)", "setting": "[7]", "value": 43.7, "unit": "%"}, {"measurement": "Activity", "setting": "[8]", "value": 71, "unit": "%"}, {"measurement": "F", "setting": "[9]", "value": 37, "unit": "%"}, {"measurement": "Activity", "setting": "[10]", "value": "Active"}, {"measurement": "AUC(0-inf)", "setting": "[11]", "value": 15500, "unit": "ng·h/mL"}, {"measurement": "t1/2", "setting": "[12]", "value": "> 1", "unit": "h"}, {"measurement": "Activity", "setting": "[13]", "value": "inactive"}, {"measurement": "IC50", "setting": "[14]", "value": 2500, "unit": "nM"}, {"measurement": "concentration at 96 h", "setting": "[15]", "value": 72, "unit": "ng/mL"}, {"measurement": "IC50", "setting": "[16]", "value": "> 10000", "unit": "nM"}]}
